Assay results from US20240246941A1, “SUBSTITUTED 4-(3-AMINOPROP-1-YL)AMINOQUINOLINE ANALOGS AS MODULATORS OF MELANOMA-ASSOCIATED ANTIGEN 11 UBIQUITIN LIGASE” (ST. JUDE CHILDREN'S RESEARCH HOSPITAL, INC., priority 2020, published 2024).

The molecules below were run against interaction between GST-MAGEA11 MHD and FAM-PCF11_4 peptide (MAGE-A11:PCF11) (Homo sapiens (Human), UniProt P43364) (assay: TR-FRET dose response competition assay for disruption of MAGE-A11:PCF11 binding). Conditions: Dose response TR-FRET screening of nine scaffold groups against MAGE-A11:PCF11; read-out: consensus IC50.
Outline: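 Competition TR-FRET at room temperature in 50 mM Tris pH 7.5, 20 mM MgCl2, 0.1 mg/ml BSA, 1 mM DTT: final 5 nM GST-MAGEA11 MHD, 5 nM Tb-anti-GST, 200 nM FAM-PCF11_4, 90 min. Ratio 520/490 nm converted to % inhibition; IC50 from sigmoidal fit.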

interaction between GST-MAGEA11 MHD and FAM-PCF11_4 peptide (MAGE-A11:PCF11), sequence (P43364 218-429): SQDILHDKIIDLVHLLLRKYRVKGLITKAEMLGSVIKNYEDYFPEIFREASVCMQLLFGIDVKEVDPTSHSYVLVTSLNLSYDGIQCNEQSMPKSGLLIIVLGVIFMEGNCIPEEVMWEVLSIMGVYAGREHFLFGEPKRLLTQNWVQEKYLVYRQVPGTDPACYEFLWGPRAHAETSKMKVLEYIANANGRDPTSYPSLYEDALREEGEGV

| SMILES | IC50 [µM] |
| --- | --- |
| COc1ccc(F)cc1CNCCCNc1ccnc2cc(Oc3ccccc3OC)ccc12 [SJ000311213-1] | 69.9 |
| O=C1c2ccccc2NC(c2ccc(Cl)cc2Cl)N1Cc1ccccc1 (centres unmarked) [SJ000551164-1] | 69.9 |
| O=C1C(Cl)=C(Nc2cccc(C(F)(F)F)c2)C(=O)c2ccccc21 [SJ000024924-2] | 69.9 |
| COc1ccc(-c2nc(C#N)c(N3CCOCC3)o2)cc1 [SJ000051527-1] | 69.9 |
| O=C1C(Cl)=C(N2CCN(S(=O)(=O)c3ccc(F)cc3)CC2)C(=O)c2ccccc21 [SJ000038882-1] | 69.9 |
| CCCOc1ccc(-c2nc3c(c(=O)[nH]c(=O)n3Cc3ccccc3)n2CCO)cc1OCC [SJ000381474-1] | 69.9 |
| COc1cccc(F)c1CNCCCNc1ccnc2cc(Cl)ccc12 [SJ000311328-2] | 69.9 |
| O=C1C(Cl)=C(Nc2ccc(Br)cc2)C(=O)c2ccccc21 [SJ000024921-1] | 69.9 |
| Fc1ccccc1CNCCCNc1ccnc2cc(Cl)ccc12 [SJ000523060-1] | 69.9 |
| Fc1ccc(Oc2ccc3c(NCCCNCc4cccc5c4OCO5)ccnc3c2)cc1 [SJ000311224-1] | 59.6 |
| COc1ccc2cc(C3Nc4ccccc4C(=O)N3CCCN3CCOCC3)ccc2c1 (centres unmarked) [SJ000803763-1] | 67.4 |
| COCCn1c(-c2cccc(C)c2)nc2c1c(=O)[nH]c(=O)n2CC(C)C [SJ000426389-1] | 69.9 |
| CC(C)(C)NC(=O)NC(=O)Cn1cnc2cc(-c3ccccc3)sc2c1=O [SJ000427956-1] | 69.9 |
| Cc1cc(C)cc(Cc2ccc3c(NCCCNCc4cccc5c4OCO5)ccnc3c2)c1 [SJ000311320-1] | 16.3 |
| CCn1c2ccccc2c2cc(CN3CCN(S(C)(=O)=O)CC3)ccc21 [SJ000168261-1] | 69.9 |
| CCCn1c(=O)[nH]c(=O)c2c1nc(-c1ccc(OC(F)(F)C(F)C(F)(F)F)cc1)n2CCOC (centres unmarked) [SJ000379374-1] | 69.9 |
| CCn1c2ccccc2c2cc(CN3CCN(C(=O)c4ccc(OC)c(OC)c4)CC3)ccc21 [SJ000298589-1] | 69.9 |
| Clc1ccc2c(NCCCNCc3ccc4ccccc4c3)ccnc2c1 [SJ000523065-1] | 69.9 |
| FC(F)(F)c1cc(-c2ccc3c(NCCCNCc4cccc5c4OCO5)ccnc3c2)cc(C(F)(F)F)c1 [SJ000311272-1] | 9.02 |
| COc1cccc(CNCCCNc2ccnc3cc(Cc4cc(C)cc(C)c4)ccc23)c1O [SJ000311319-1] | 23.6 |

| SMILES | IC50 [µM] |
| --- | --- |
| Cn1c(-c2ccc3c(c2)OCO3)nc2c1c(=O)[nH]c(=O)n2C [SJ000518479-1] | 69.9 |
| COc1cccc(-c2nc(S(=O)(=O)c3ccc(Cl)cc3)c(N3CCOCC3)o2)c1 [SJ000038124-1] | 7.43 |
| CC(C)(C)C(=O)CSc1nc2cc(-c3ccccc3)sc2c(=O)n1CCN1CCOCC1 [SJ000451590-1] | 69.9 |
| CCCCn1c(=O)[nH]c(=O)c2c1nc(-c1ccc(F)cc1)n2CCOC [SJ000421862-1] | 69.9 |
| CCOC(=O)N1CCN(Cc2ccc3c(c2)c2ccccc2n3CC)CC1 [SJ000147352-1] | 29.5 |
| CCCn1c(=O)[nH]c(=O)c2c1nc(-c1ccc(OC(F)F)cc1)n2CCN1CCOCC1 [SJ000377779-1] | 69.9 |
| CCCN1C(=O)c2ccccc2NC1c1ccc(O)c(OCC)c1 (centres unmarked) [SJ000019510-1] | 69.9 |
| CCOc1ccc(Nc2nc(N)c3ccccc3n2)cc1 [SJ000045621-1] | 69.9 |
| COc1cc2nc(N(C)CCCNC(=O)C3CCCO3)nc(N)c2cc1OC (centres unmarked) [SJ000286094-9] | 36.2 |
| c1ccc(Cc2ccc3c(NCCCNCc4cccc5c4OCO5)ccnc3c2)cc1 [SJ000311308-1] | 46.1 |
| C=CCOc1ccc(-c2nc3c(c(=O)[nH]c(=O)n3CCCC)n2C)cc1Br [SJ000379462-1] | 69.9 |
| CCOc1ccc(-c2nc(C#N)c(N3CC(C)OC(C)C3)o2)cc1 (centres unmarked) [SJ000478356-1] | 69.9 |
| CCCN1C(=O)c2ccccc2NC1c1ccc(Cl)c(Cl)c1 (centres unmarked) [SJ000296071-1] | 69.9 |
| CCCCn1c(=O)[nH]c(=O)c2c1nc(-c1ccc(O)c(OC)c1)n2CCC [SJ000429070-1] | 69.9 |
| Cn1c2ccccc2c2cc(C(=O)N3CCc4nncn4CC3)ccc21 [SJ000307416-1] | 69.9 |
| CCn1c(-c2ccc(O)c(OC)c2)nc2c1c(=O)[nH]c(=O)n2Cc1ccccc1 [SJ000430392-1] | 69.9 |
| COc1ccc(C(F)(F)F)cc1CNCCCNc1ccnc2cc(C(F)(F)F)ccc12 [SJ000521064-1] | 69.1 |
| COc1ccc(O)c(C(C)NCCCNc2ccnc3cc(Cl)ccc23)c1 (centres unmarked) [SJ000311188-1] | 69.9 |
| COc1cccc(CNCCCNc2ccnc3cc(Oc4cccc(N(C)C)c4)ccc23)c1O [SJ000311231-1] | 69.9 |
| CCCCn1c(=O)[nH]c(=O)c2c1nc(-c1cccc(F)c1)n2C [SJ000415940-1] | 69.9 |

| SMILES | IC50 [µM] |
| --- | --- |
| Oc1ccc(Br)c(CNCCCNc2ccnc3cc(Cl)ccc23)c1 [SJ000311194-1] | 69.9 |
| COCC(C)NC(=O)Cn1cnc2cc(-c3ccc(Br)cc3)sc2c1=O (centres unmarked) [SJ000427828-1] | 69.9 |
| CC(=O)Nc1ccc(NC2=C(Cl)C(=O)c3ccccc3C2=O)cc1 [SJ000024922-1] | 69.9 |
| Fc1ccc(CNCCCNc2ccnc3cc(Cl)ccc23)cc1 [SJ000523062-1] | 69.9 |
| COc1cccc(CNCCCNc2ccnc3cc(-c4cc(C(F)(F)F)cc(C(F)(F)F)c4)ccc23)c1O [SJ000311271-1] | 69.9 |
| CCn1c2ccccc2c2cc(CNCCc3ccc4c(c3)OCO4)ccc21 [SJ000112461-1] | 69.9 |
| COc1ccc(-c2cc3ncn(CC(=O)NCc4ccccc4C)c(=O)c3s2)cc1 [SJ000455215-1] | 69.9 |
| CCn1c2ccccc2c2cc(CN3CCN(Cc4cc(OC)ccc4O)CC3)ccc21 [SJ000111875-2] | 69.9 |
| CCCCn1c(=O)[nH]c(=O)c2c1nc(-c1ccc([N+](=O)[O-])cc1)n2CC [SJ000378938-1] | 69.9 |
| Clc1cccc(Cl)c1Cc1ccc2c(NCCCNCc3cccc4c3OCO4)ccnc2c1 [SJ000311316-1] | 11 |
| CCCn1c(=O)[nH]c(=O)c2c1nc(-c1cccc(Br)c1)n2CCOC [SJ000431389-1] | 69.9 |
| Nc1nc(Nc2ccc(O)cc2)nc2ccccc12 [SJ000045622-1] | 69.9 |
| Clc1ccc2c(NCCCNCc3c4ccccc4cc4ccccc34)ccnc2c1 [SJ000361122-2] | 69.9 |
| NC1=C(Nc2ccccc2)C(=O)c2ccccc2C1=O [SJ000562543-1] | 60.8 |
| COc1ccc(F)cc1CNCCCNc1ccnc2cc(CCC(C)C)ccc12 [SJ000311249-1] | 69.9 |
| COc1ccc(-c2cc3ncn(CC(=O)NCc4ccc(F)cc4)c(=O)c3s2)cc1 [SJ000443969-1] | 69.9 |
| CCC(CC)c1ccc2c(NCCCNCc3cccc4c3OCO4)ccnc2c1 [SJ000311268-1] | 28.9 |
| FC(F)(F)c1ccc2c(NCCCNCc3cccc4c3OCO4)ccnc2c1 [SJ000521048-1] | 69.9 |
| Cc1ccc(S(=O)(=O)c2nc(-c3ccc(Cl)cc3)oc2N2CCOCC2)cc1 [SJ000230693-1] | 69.9 |
| FC(F)(F)c1cccc(Cc2ccc3c(NCCCNCc4cccc5c4OCO5)ccnc3c2)c1 [SJ000311300-1] | 12.8 |

Same assay, conditions: Table 5, dose response TR-FRET screening of 59 quinoline compounds against MAGE-A11:PCF11; read-out: TR-FRET IC50

| SMILES | IC50 [µM] |
| --- | --- |
| CCCCCCNCCCNc1ccnc2cc(C(F)(F)F)ccc12 [SJ000361124-1] | 57.6 |
| Clc1ccc2c(NCCCCN(Cc3ccccc3)CC3CCCCC3)ccnc2c1 [SJ000361194-2] | > 70 |

Same assay, conditions: Table 6, 4-aminoquinoline compounds; read-out: TR-FRET, IC50

| SMILES | IC50 [µM] |
| --- | --- |
| FC(F)(F)c1ccc(-c2ccc3c(NCCCNCc4cccc5c4OCO5)ccnc3c2)cc1 [SJ000311280-01] | 4.07 |

Same assay, conditions: Table 8, representative compounds; read-out: TR-FRET IC50

| SMILES | IC50 [µM] |
| --- | --- |
| COc1cccc(Oc2ccc3c(NCCCNCc4cc(F)ccc4OC)ccnc3c2)c1 [SJ000311217] | 36.8 |
| N#Cc1ccc(Cc2ccc3c(NCCCNCc4cccc5c4OCO5)ccnc3c2)cc1 [SJ000311304] | 66 |
| COc1ccccc1CNCCCNc1ccnc2cc(Cl)ccc12 [SJ000311185] | 69.9 |
| COc1cccc(CNCCCNc2ccnc3cc(-c4cc(C(F)(F)F)cc(C(F)(F)F)c4)ccc23)c1O [SJ000311271] | 69.9 |
| COc1ccc(F)cc1CNCCCNc1ccnc2cc(Cc3c(Cl)cccc3Cl)ccc12 [SJ000311317] | 12.2 |
| COc1ccc(F)cc1CNCCCNc1ccnc2cc(Cc3ccc(F)cc3)ccc12 [SJ000311245] | 35.1 |
| COc1ccc(F)cc1CNCCNc1ccnc2cc(-c3ccc4c(c3)OCO4)ccc12 [SJ000311293] | 29.9 |
| Clc1ccc(Oc2ccc3c(NCCCNCc4cccc5c4OCO5)ccnc3c2)cc1 [SJ000311228] | 17.7 |
| COc1ccc(F)c(CNCCCNc2ccnc3cc(Cl)ccc23)c1 [SJ000521030] | 69.9 |
| FC(F)(F)c1ccc(-c2ccc3c(NCCCNCc4cccc5c4OCO5)ccnc3c2)cc1 [SJ000311280-01] | 15.7 |
| COc1ccc(F)cc1CNCCCNc1ccnc2cc(Oc3ccccc3)ccc12 [SJ000311209] | 29 |
| COc1cccc(CNCCCNc2ccnc3cc(-c4ccc(C(F)(F)F)cc4)ccc23)c1O [SJ000311279] | 9.52 |
| COC(=O)c1ccc(CNCCCNc2ccnc3cc(Cl)ccc23)cc1 [SJ000523067] | 69.9 |
| COc1cc(Cc2ccc3c(NCCCNCc4cccc5c4OCO5)ccnc3c2)cc(OC)c1 [SJ000311312] | 31.3 |
| COC1CCCC(F)CC1CNCCCNc1ccnc2cc(CCc3ccccc3)ccc12 (centres unmarked) [SJ000311256] | 37.1 |
| COc1cccc(Oc2ccc3c(NCCCNCc4cccc5c4OCO5)ccnc3c2)c1 [SJ000311216] | 36.9 |
| COc1ccc(F)cc1CNCCCNc1ccnc2cc(-c3ccc(F)cc3)ccc12 [SJ000311241] | 38.9 |
| Clc1ccc2c(NCCCNCc3ccc4ccccc4c3)ccnc2c1 [SJ000523065] | 69.9 |
| COc1cccc(CNCCCNc2ccnc3cc(C4=CC=CC5=CC=CC=CC54)ccc23)c1O (centres unmarked) [SJ000311275] | 16 |

Same assay, conditions: read-out: IC50 by TR-FRET for disrupting MAGE-A11:PCF11 interaction

| SMILES | IC50 [µM] |
| --- | --- |
| FC(F)(F)c1ccc(-c2ccc3c(NCCCNCc4cccc5c4OCO5)ccnc3c2)cc1 [SJ000311280-01] | 4.07 |
